US10844023B2 (Washington University, priority 2017, dated 2020)
Read-outs that look alike come from different tables or passages of the source.

Legend:
MFN2 T105M = test: Reversal of mitochondrial dysmorphology provoked by MFN2 T105M in MEFs; assay type: cell-based, mouse
[1] = system: MFN2 Asp^378 and Ala^378 mutants; test: Mitochondrial fusion with MFN2 Ser378 mutants (Asp378, Ala378); assay type: cell-based, human
[2] = system: MFN2 T105M sciatic nerves; test: Sciatic nerve axonal mitochondrial motility, agonist applied to the excised nerve; design: species or system mouse
Procedure: Sciatic nerves of 12-18 week old male or female MFN2 T105M mice were removed en bloc with the lumbar spine and axotomy at the tibial nerve, stained with TMEM ([…]) for 30 minutes in prewarmed Neurobasal Medium without phenol red (Thermo Fisher Scientific) at room temperature, washed, and maintained on the stage of a Nikon A1Rsi Confocal Microscope at 37 degrees C. for time-lapse confocal studies. Images were acquired with a 40×oil immersion objective at 1 frame every 5 or 10 seconds for sequential 10 minute periods. Mitofusin agonist chimera B-A/I was added after the first 10 minute imaging period (final concentrations of […]) and nerve axons imaged for another 40 minutes. Because there was no difference in mitochondrial trafficking or response to mitofusin agonist between male and female mice, the data were combined.

[3] = system: ALS and HD patient-derived fibroblasts; test: Mitochondrial health assays in ALS and HD patient-derived fibroblasts; assay type: cell-based, human
Procedure: HD patient-derived fibroblast cell lines (GM04693 from patient and GM05539 from patient) were purchased from Invitrogen. ALS patient-derived fibroblasts (ALS 1: ND29509 from patient having SOD1 mutation; ALS 2: ND30327 having FUS1 mutation) and fibroblasts of control healthy individuals were purchased from Coriell Institute, USA. All fibroblast cultures were maintained in MEM supplemented with 15% (v/v) FBS and 1% (v/v) penicillin/streptomycin at 37° C. in 5% CO2-95% air. Galactose media was used, to increase mitochondria-dependent metabolism oxidative phosphorylation. Human fibroblasts were switched to grow for 48 h in DMEM deprived of glucose and containing galactose (4.5 g/I), 1% FBS, 5 mM sodium pyruvate and 2 mM L-glutamine for the studies.
Cells cultured in 8-well chamber slides were washed with cold PBS, fixed in 4% formaldehyde, and permeabilized with 0.1% Triton X-100. After incubation with 2% normal goat serum (to block nonspecific staining), fixed cells were incubated overnight at 4° C. with TOM20 antibody (1:500) (Santa Cruz, USA). Cells were washed with PBS and incubated for 60 minutes with FITC-conjugated goat anti-rabbit IgG (1:500 dilution). The cells were then washed gently with PBS and counterstained with Hoechst 33342 (1:10,000 dilution, Molecular Probes) to visualize nuclei. The coverslips were mounted with Slow-fade anti-fade reagent (Invitrogen), and images were acquired at 60×using an All-in-One Fluorescence Microscope BZ-X700 (Keyence).
Cells were incubated with tetra-methyl-rhodamine methyl ester (TMRM, 25 nM, Invitrogen) in HBSS (Hank's balanced salt solution) for 30 min at 37° C., per the manufacture's protocol, and the fluorescence was analyzed to measure mitochondrial membrane potential. All data were normalized with respect to the fluorescence intensity of control cells. To determine mitochondrial ROS production, cells were treated with 5 μM MitoSOX™ Red, a mitochondrial superoxide indicator (Invitrogen) for 20 min at 37° C., according to the manufacturer's protocol, and fluorescence was analyzed using SpectraMax M2e (Molecular devices).

Mfn2 null MEFs = test: Mitochondrial elongation (aspect ratio) fusogenicity assay; assay type: cell-based, mouse; details: for Fusogenic activity: mitochondrial elongation / fusion; for EC50: Mus musculus, increase in mitochondrial aspect ratio
MFN2 HR2 = biological target: T1, MFN2 HR2 (Homo sapiens, UniProt O95140); test: HR1 peptide-HR2 target binding assay; details: FITC minipeptide 374-384 at HR2 binding site
T1 construct: host or cells: synthetic peptide (note in the listing); immobilised on Ni-NTA resin
T1 sequence (O95140 with tags, fused parts or gaps limits assumed): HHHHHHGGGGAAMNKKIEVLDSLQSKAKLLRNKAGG
Source text: The Mfn-derived fusion-promoting and -inhibiting mini-peptides (simulated to obtain the chemical Mfn agonists in TABLE 1 and TABLE 2) were modified from amino acid heptad repeats (HR) in the HR1 domain and predicted to interact with their counterparts in the carboxyl terminus HR2 domain within the Mfn stalk region (see e.g., FIG. 1, top panel). A high-throughput binding assay was designed whereby the target HR2 peptide sequences, modified to include amino terminal 6×His tags and Gly linkers, were bonded to Ni-chelate resin (20 μg/ml) and used as immobilized “receptor” for amino-FITC-tagged Mfn2 374-384 (agonist ligand) in which the Ser analogous to Ser378 was replaced with Asp to confer the negative charge essential for activity. For antagonist studies the ligand was amino-FITC-tagged Mfn2 406-418. The FITC peptide ligands are suspended at 1 mM in 30% DMSO, 70% water (to minimize spontaneous aggregation) and diluted into binding buffer (de-ionized water) to a final concentration of 25 μM in the presence or absence of competing compound. Dose-dependent loss of resin-bound FITC signal (485 nm excitation/538 nm emission) measured in a 96 well spectrofluorometer represents binding of compound to its HR2 target (see e.g., FIG. 10, FIG. 11). Either the ligand peptide or the receptor peptide can be modified to represent mutations, variations, or posttranslational modifications of Mfn2. […]
Target HR2 peptide sequence modified to include amino terminal 6×His tags and Gly linkers, were bonded to Ni-NTA resin (4.4 μg/ml) (Quiagen) and used as immobilized “receptor” for amino-FITC-tagged Mfn2 374-384 (ligand) in which the Ser analogous to Ser378 was replaced with Asp to confer the negative charge essential for activity. […] Resin-bound FITC signal (485 nm excitation/538 nm emission) measured in a 96 well spectrofluorometer (Spectramax M5e, Molecular Devices) represented binding to HR2 target. Competition binding isotherms were plotted and IC50 values calculated using Prism 7 (GraphPad).

[4] = system: cultured neurons expressing MFN2 T105M; test: Cultured mouse neurons expressing CMT2A mutant MFN2; assay type: cell-based
Procedure: Neonatal mouse hippocampal neurons were cultured from brains of one day old Mfn2 T105M or non-transgenic sibling mouse pups as described. After 10 days of differentiating culture neurons were infected with Adeno-Cre to induce Mfn2 T105M expression or Adeno-βgal as a control (50 MOI). After an additional 72 hours mitofusin agonists or DMSO vehicle were added. For static confocal imaging neuronal mitochondria were labeled with adenoviral-expressed mitoGFP plus TMRE. Autophagy was measured by LC3 aggregation in neurons infected with adenoviral LC3-GFP. For time-lapse studies of mitochondrial trafficking bi-cistronic Adeno-Cre/GFP marked Cre expression and mitochondria were labeled with adeno-mitoDsRed. Confocal live cell images were acquired with a time-lapse of 1 frame every 90 seconds for 1 hour.

[5] = In vivo pharmacokinetics in mice; details: mouse; for concentration at 2 h: plasma, intramuscular, 1 mg/kg
Procedure: (A) Three mice each were administered 1 mg/kg agonist IV, IP, or IM. Graphs are mean plasma concentration for each administration route. (B) Results for individual mice were administered 1 mg/kg indicated agonist IM.

P-gp/MDR1 = P-gp/MDR1 (Homo sapiens, UniProt P08183); test: P-gp/MDR1 transport; assay type: in vitro ADME
[6] = Plasma protein binding (equilibrium dialysis); assay type: in vitro ADME
Procedure: (§1) Plasma protein binding was measured using equilibrium dialysis; % bound=(1-[free compound in dialysate]/[total compound in retentate])×100. Plasma stability of […] compound in clarified freeze-thawed plasma was assessed by LC-MS/MS of supernatants after protein precipitation; 120 min data are reported for studies including 0, 10, 30, 60, and 120 min. Microsome stability of […] compound in liver microsomes (0.5 mg/ml) after 0, 5, 10, 20, 30, 60 min. incubation was assessed by LC/MS/MS of reaction extracts.

[7] = Parallel artificial membrane permeability assay (PAMPA); assay type: in vitro ADME
[8] = Liver microsome stability; assay type: in vitro ADME
Procedure: as §1

[9] = Plasma protein binding, mouse; assay type: in vitro ADME; details: read-out: plasma protein bound in the mouse (converted)
Procedure: as §1

CMT2A MFN2 T105M mice = test: In vivo sciatic nerve mitochondrial motility in CMT2A mice; design: species or system mouse; details: IM, 2 mg/kg, assessed 4 hours later
Procedure: Sciatic nerve mitochondrial motility was measured 4 hours later. Results described in FIG. 58 are for 2 CMT2A mice per group.

Plasma stability = assay type: in vitro ADME
Procedure: as §1

[10] = Solubility in 50 mM phosphate buffer (pH 7.4); assay type: physicochemical
[11] = system: Mfn1/Mfn2 double null MEFs; test: Mitochondrial elongation in Mfn1/Mfn2 double null MEFs; assay type: cell-based, mouse
Source text: A cultured murine embryonic fibroblast assay system was used in which mitochondrial elongation (an increase in aspect ratio) reflects enhanced mitochondrial fusion.

[12] = ALS and HD patient-derived fibroblasts

P-gp/MDR1, sequence (P08183 whole entry): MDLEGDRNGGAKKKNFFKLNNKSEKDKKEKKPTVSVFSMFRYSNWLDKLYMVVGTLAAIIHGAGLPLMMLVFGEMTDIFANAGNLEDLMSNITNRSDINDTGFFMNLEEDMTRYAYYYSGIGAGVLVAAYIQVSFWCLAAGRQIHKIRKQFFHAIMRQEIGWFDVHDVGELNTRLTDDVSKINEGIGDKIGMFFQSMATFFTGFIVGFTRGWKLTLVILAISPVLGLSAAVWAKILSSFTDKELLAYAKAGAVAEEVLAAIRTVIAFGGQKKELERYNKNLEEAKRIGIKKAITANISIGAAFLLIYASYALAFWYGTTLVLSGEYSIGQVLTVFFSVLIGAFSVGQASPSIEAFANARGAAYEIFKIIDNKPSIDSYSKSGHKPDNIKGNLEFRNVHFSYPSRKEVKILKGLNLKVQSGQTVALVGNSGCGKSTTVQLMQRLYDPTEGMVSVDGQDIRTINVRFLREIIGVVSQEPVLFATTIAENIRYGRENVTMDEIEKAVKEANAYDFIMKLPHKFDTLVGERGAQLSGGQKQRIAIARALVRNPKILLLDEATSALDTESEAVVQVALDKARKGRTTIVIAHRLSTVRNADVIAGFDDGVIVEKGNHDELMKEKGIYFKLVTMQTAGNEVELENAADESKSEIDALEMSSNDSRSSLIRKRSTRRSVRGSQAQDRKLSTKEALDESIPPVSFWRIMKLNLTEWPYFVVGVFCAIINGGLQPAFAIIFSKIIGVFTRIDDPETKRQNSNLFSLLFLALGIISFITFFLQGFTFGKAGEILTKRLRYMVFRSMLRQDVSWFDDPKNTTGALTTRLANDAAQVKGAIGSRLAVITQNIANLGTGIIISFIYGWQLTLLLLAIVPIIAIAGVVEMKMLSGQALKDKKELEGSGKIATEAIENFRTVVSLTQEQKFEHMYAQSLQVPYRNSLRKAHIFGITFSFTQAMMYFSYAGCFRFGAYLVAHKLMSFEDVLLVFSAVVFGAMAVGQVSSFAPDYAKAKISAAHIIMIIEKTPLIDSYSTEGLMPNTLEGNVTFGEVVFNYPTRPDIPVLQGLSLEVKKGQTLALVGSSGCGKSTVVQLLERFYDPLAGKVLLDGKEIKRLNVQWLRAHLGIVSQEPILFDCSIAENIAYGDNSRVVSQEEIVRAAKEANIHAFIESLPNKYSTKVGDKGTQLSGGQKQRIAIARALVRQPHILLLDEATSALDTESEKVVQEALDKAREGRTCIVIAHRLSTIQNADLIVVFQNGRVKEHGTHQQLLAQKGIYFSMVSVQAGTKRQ

Compound | Selectivity of fusogenic effect for phosphomimic Asp378 vs nonphosphorylatable Ala378 MFN2 [1] | Mitochondrial motility in MFN2 T105M sciatic nerves [2] | Fusogenic activity (Mfn2 null MEFs) | P-gp mediated transport (P-gp/MDR1) | Plasma protein binding [6] | Passive diffusion across lipid-infused artificial membrane (PAMPA, words) [7] | EC50 (Mfn2 null MEFs) | Liver microsome stability [8] | other results
CC1CCCCC1NC(=O)NCCSc1nnc(C2CC2)n1-c1ccccc1 (racemic) [B-A/I, 1-(2-((5-cyclopropyl-4-phenyl-4H-1,2,4-triazol-3-yl)thio)ethyl)-3-(2-methylcyclohexyl)urea] | non-selective | restored mitochondrial motility to within normal levels | potently stimulated mitochondrial fusion | – | – | – | – | – | Reversal of mitochondrial dysmorphology provoked by MFN2 T105M (MFN2 T105M): as effective as the combination of Cpds A+B; Mitochondrial ROS levels [3, 12]: reduces mitochondrial ROS levels; Mitochondrial membrane potential [3, 12]: improves mitochondrial membrane potential; Mitochondrial structural defects [3, 12]: enhances mitochondrial structural defects; Effect on fibroblasts from control subjects ([3]; control fibroblasts): has no effect on fibroblasts from control subjects; Binding to / competition at HR2 target (MFN2 HR2): competed for minipeptide binding at the MFN2 HR2 interaction site; Mitochondrial motility in cultured neurons expressing MFN2 T105M [4]: restored mitochondrial motility
CCn1c(CCCNC(=O)NC2CCOCC2)nnc1C1CC1 [Mitolityn-4, 1-(3-(5-cyclopropyl-4-ethyl-4H-1,2,4-triazol-3-yl)propyl)-3-(tetrahydro-2H-pyran-4-yl)urea] | – | – | highest potency | no reverse transport by P-gp | low plasma protein binding | no passive diffusion across lipid membrane | ~3 nM | stability in the liver microsome assay | concentration at 2 h ([5]; 1 mg/kg IM, read-out: total plasma drug concentration 2 hours after IM administration): 7.5 ng/mL; concentration at 2 h ([5]; IM, from total concentration and protein binding, read-out: free drug concentration 2 hours after IM administration): ~6.66 ng/mL; concentration at 2 h ([5]; IM, read-out: free drug concentration 2 hours after IM administration): ~20 nM; fraction unbound [9]: 0.888
CC1CCCCC1NC(=O)NCCCc1nnc(C2CC2)n1-c1ccccc1 (stereo not drawn) [Regeneurin-C, 1-(3-(5-cyclopropyl-4-phenyl-4H-1,2,4-triazol-3-yl)propyl)-3-(2-methylcyclohexyl)urea] | – | – | – | actively transported by P-gp/MDR1 | – | excellent passive diffusion | – | – | total plasma drug concentration 2 hours after IM administration ([5]; 1 mg/kg IM): undetectable
O=C(NCCCc1nnc(C2CC2)n1-c1ccccc1)NC1CCOCC1 [Regeneurin-C/O, 1-(3-(5-cyclopropyl-4-phenyl-4H-1,2,4-triazol-3-yl)propyl)-3-(tetrahydro-2H-pyran-4-yl)urea] | – | – | – | – | – | – | – | – | Sciatic nerve axon mitochondrial motility in vivo (CMT2A MFN2 T105M mice): reverses the characteristic mitochondrial immobility in sciatic nerve axons
CC1CCCCC1NC(=O)NCCSc1nnc(C2CC2)n1-c1ccccc1 (stereo not drawn) [Regeneurin-S, 1-(2-((5-cyclopropyl-4-phenyl-4H-1,2,4-triazol-3-yl)thio)ethyl)-3-(2-methylcyclohexyl)urea] | – | rapidly correct mitochondrial dysmotility | – | – | highly protein bound | – | – | rapidly degraded by liver microsomes | Plasma stability (Plasma stability): stable in plasma; Solubility [10]: soluble
CC1CCCCC1NC(=O)NCCSCc1ccccc1 (stereo not drawn) [compound A, 1-[2-(benzylsulfanyl)ethyl]-3-(2-methylcyclohexyl)urea] | specific for the Asp^378 mutant of MFN2 | – | induced mitochondrial elongation | – | – | – | 100 to 200 nM | – | Mitochondrial elongation in absence of both mitofusins [11]: did not occur in the absence of both of their mitofusin targets
